Laboratory results reported in patent publication US20260055112A1, “CRYSTALLINE FORM OF PYRAZOLOPYRIMIDINE ESTER COMPOUND AND METHODS OF PREPARING THE SAME” (Shanghai Maius Pharmaceutical Co. Ltd., priority 2022, published 2026).
“Also recorded” adds a separate entry of the source.

Tests used:
[1] = Stability study: change in purity after 10 days storage under forced degradation conditions; assay type: physicochemical; settings: for Purity, 25° C. + 92.5% RH (Day 10): stored at 25° C. and 92.5% RH for 10 days; for Purity (Day 10): stored for 10 days
Protocol: Samples of the amorphous and crystalline (Form I) compound of formula (I) were stored under different conditions: at 40° C. for 10 days; […]; at 25° C. and 92.5% RH (relative humidity) for 10 days; at 60° C. and 75% RH for 10 days; in light for 10 days; and at room temperature for 10 days.

[2] = among the pyrazolopyrimidine ester prodrugs of CN 202111131059.0; cited from earlier work

| Structure (SMILES) | Stability in general (in words) ([1]; amorphous product, heat and moisture) | Degradation observed (in words) ([1]; storage 10 days at 40° C.) | Degradation observed (in words) ([1]; storage 10 days at 40° C., listed as amorphous sample) | Degradation observed (in words) ([1]; storage 10 days at 60° C. and 75% RH) | Purity, 25° C. + 92.5% RH (Day 10) [1] [%] | Purity (Day 10) [1] [%] | Stability (in words) ([1]; 10 days of storage at room temperature and in light) | Degree of degradation compared with the amorphous form ([1]; several forced degradation conditions) | Rate of hydrolysis in blood [2] |
| --- | --- | --- | --- | --- | --- | --- | --- | --- | --- |
| C=CC(=O)N1CCC[C@@H](n2nc(-c3ccc(Oc4ccccc4)cc3)c3c(NC(=O)OCCCC)ncnc32)C1 [Amorphous, 1-[(3R)-3-[4-(butoxycarbonyl)-amino-3-(4-phenoxyphenyl)-1H-pyrazolo[3,4-d]pyrimidin-1-yl]-1-piperidinyl]-2-propen-1-one] | poor stability | Significant degradation | Noticeable degradation | almost complete degradation | 98.00 | 0 |  |  |  |
| C=CC(=O)N1CCC[C@@H](n2nc(-c3ccc(Oc4ccccc4)cc3)c3c(NC(=O)OCCCC)ncnc32)C1 [Form I, 1-[(3R)-3-[4-(butoxycarbonyl)-amino-3-(4-phenoxyphenyl)-1H-pyrazolo[3,4-d]pyrimidin-1-yl]-1-piperidinyl]-2-propen-1-one] |  |  |  |  | 98.63 | 2.19 | highly stable; also recorded: very stable | lower degrees of degradation than the amorphous compound; also recorded: lower degree of degradation than the amorphous form |  |
| C=CC(=O)N1CCC[C@@H](n2nc(-c3ccc(Oc4ccccc4)cc3)c3c(NC(=O)OCCCC)ncnc32)C1 [formula (I), 1-[(3R)-3-[4-(butoxycarbonyl)-amino-3-(4-phenoxyphenyl)-1H-pyrazolo[3,4-d]pyrimidin-1-yl]-1-piperidinyl]-2-propen-1-one] |  |  |  |  |  |  |  |  | hydrolyzed most rapidly |
